Columns and labels:
[1] = biological target: Gelatinase; assay: in vitro particle concentration fluorescence assay, inhibition of gelatinase; type: biochemical; conditions: pH 7.5, room temperature, read-out: Gelatinase Ki (MMP Inhibition Constants)
Experimental: (§1) Inhibitory activity is evaluated in one or more of the MMP enzymes (stromelysin, gelatinase, and collagenase) in vitro using particle concentration fluorescence assay. An inhibitor binds to MMP enzymes which prevents the degradation of a substrate by stromelysin, gelatinase, or collagenase. The substrate has attached to it a fluorescein and a biotin moiety. The intact substrate then binds to an avidin-coated particle via the biotin moiety. Once the particle is washed and dried, a fluorescent signal is generated since the fluorescent group is attached to the particle. Without an inhibitor present, the substrate is degraded by MMP enzymes and the fluorescein group is removed, therefore, no fluorescent signal can be detected. Testing compounds are dissolved in DMSO to the desired concentration, then the solutions are diluted to 1:5 with MMP buffer (50 mM Tris-HCl, pH 7.5; 150 mM NaCl; 0.02% NaN3). Serial two-fold dilutions of each compound are prepared. A concentrated, activated enzyme solution is transferred into each plate of the testing compounds, and the mixture is incubated at room temperature for 15 minutes. Thawed MMP substrate is then added into all plates, and the plates are incubated in the dark for 1-3 hours at room temperature. At this point, the substrate mixture is mixed with 0.1% avidin-coated polystyrene particles. After 15 minutes, the fluorescence values are measured following filtration and washing of the beads. Ki values are then calculated.

[2] = biological target: Stromelysin (Homo sapiens, UniProt P08254); assay: in vitro particle concentration fluorescence assay, inhibition of stromelysin; type: biochemical; conditions: pH 7.5, room temperature, read-out: Stromelysin Ki (MMP Inhibition Constants)
Experimental: as §1

Sequence of Stromelysin (P08254 100-477): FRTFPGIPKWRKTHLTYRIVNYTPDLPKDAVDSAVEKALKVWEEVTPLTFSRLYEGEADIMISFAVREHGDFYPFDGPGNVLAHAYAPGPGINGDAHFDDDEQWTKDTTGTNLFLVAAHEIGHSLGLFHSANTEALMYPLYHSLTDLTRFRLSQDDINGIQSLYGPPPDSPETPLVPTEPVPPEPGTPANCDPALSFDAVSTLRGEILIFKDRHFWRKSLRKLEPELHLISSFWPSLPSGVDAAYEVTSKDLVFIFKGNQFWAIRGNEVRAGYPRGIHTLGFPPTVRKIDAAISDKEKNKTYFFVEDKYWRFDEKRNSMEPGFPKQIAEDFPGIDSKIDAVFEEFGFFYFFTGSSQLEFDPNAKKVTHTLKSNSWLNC

Compound | Ki [1] | Ki [2]
CCCCN1CC(=O)N(CC(CS(=O)(=O)c2ccc(OC)cc2)C(=O)NO)C1=O (stereo not drawn) [Example 15, N-hydroxy-2-[methyl-3-(1-butylhydantoin)]-3-(4-methoxybenzenesulfonyl)-propionamide] | 0.34 nM | 9 nM
CCCCS(=O)(=O)CC(CS(=O)(=O)CCCC)C(=O)NO [Example 7, N-hydroxy-2-[(n-butylsulfonyl)methyl]-3-(n-butylsulfonyl)-propionamide] | 350 nM | 1000 nM
COc1ccc(S(=O)(=O)CC(CN2C(=O)CN(C)C2=O)C(=O)NO)cc1 (stereo not drawn) [Example 13, N-hydroxy-2-[methyl-3-(1-methylhydantoin)]-3-(4-methoxybenzenesulfonyl)-propionamide] | 1.3 nM | 17 nM
COc1ccc(S(=O)(=O)CCCC(CS(=O)(=O)c2ccc(OC)cc2)C(=O)NO)cc1 (stereo not drawn) [Example 11, N-hydroxy-2-[(4-methoxybenzenesulfonyl)-methyl]-5-(4-methoxybenzenesulfonyl)-pentanamide] | 1 nM | 1 nM
O=C(NO)C(CS(=O)(=O)c1ccc(Cl)cc1)CS(=O)(=O)c1ccc(Cl)cc1 [Example 5, N-hydroxy-2-[(4-chlorobenzenesulfonyl)methyl]-3-(4-chlorobenzenesulfonyl)-propionamide] | 1.9 nM | 72 nM
O=C(NO)C(CS(=O)(=O)c1ccc(Br)cc1)CS(=O)(=O)c1ccc(Br)cc1 [Example 6, N-hydroxy-2-[(4-bromobenzenesulfonyl)methyl]-3-(4-bromobenzenesulfonyl)-propionamide] | 2.5 nM | 92 nM
CCCCOc1ccc(S(=O)(=O)CC(CN2C(=O)CN(CCCC)C2=O)C(=O)NO)cc1 (stereo not drawn) [Example 14, N-hydroxy-2-[methyl-3-(1-butylhydantoin)]-3-(4-butoxybenzenesulfonyl)-propionamide] | 0.092 nM | 1.8 nM
COc1ccc(S(=O)(=O)CC(CS(=O)(=O)c2ccc(OC)cc2)C(=O)NO)cc1 [Example 4, N-hydroxy-2-[(4-methoxybenzene-sulfonyl)methyl]-3-(4-methoxybenzenesulfonyl)-propionamide] | 0.19 nM | 3.9 nM
Cc1ccc(S(=O)(=O)CC(CS(=O)(=O)c2ccc(C)cc2)C(=O)NO)cc1 [Example 9, N-hydroxy-2-[(4-methylbenzenesulfonyl)methyl]-3-(4-methylbenzenesulfonyl)-propionamide] | 3.8 nM | 130 nM
O=C(NO)C(Cc1ccccc1)CS(=O)(=O)c1ccccc1 (stereo not drawn) [Example 2, N-hydroxy 2-[(benzenesulfonyl)methyl]-3-phenyl-propionamide] | 87 nM | 1100 nM
O=C(NO)C(CS(=O)(=O)c1ccccc1)CS(=O)(=O)c1ccccc1 [Example 10, N-hydroxy-2-[(benzenesulfonyl)methyl]-3-(benzenesulfonyl)-propionamide] | 8 nM | 160 nM
CCCCCCCCS(=O)(=O)CC(CS(=O)(=O)CCCCCCCC)C(=O)NO [Example 8, N-hydroxy-2-[(n-octylsulfonyl)methyl]-3-(n-octylsulfonyl)-propionamide] | 190 nM | 440 nM
COc1ccc(S(=O)(=O)CC(Cc2ccccc2)C(=O)NO)cc1 (stereo not drawn) [Example 1, N-hydroxy 2-[(4-methoxybenzenesulfonyl)methyl]-3-phenyl-propionamide] | 9.2 nM | 49 nM
CC(CS(=O)(=O)c1ccccc1)C(=O)NO (stereo not drawn) [Example 3, N-hydroxy 2-[(benzenesulfonyl)methyl]-propionamide] | 81 nM | 3600 nM
CCCCCCCCS(=O)(=O)CC(CS(=O)(=O)c1ccc(OC)cc1)C(=O)NO (racemic) [Example 12, N-hydroxy-2-(n-octylsulfonylmethyl)-3-(4-methoxybenzenesulfonyl)-propionamide] | 0.82 nM | 5.4 nM

Reference: patent publication US5847153A, “β-sulfonyl hydroxamic acids” (Pharmacia & Upjohn Company, priority 1997, dated 1998)
